Laboratory results from patent US9102686B2, “5,6,7,8,9,10-hexahydro-6,10-epimino[1,2,4]triazolo[4,3-a]azocines as P2X7 modulators” (Janssen Pharmaceutica NV, priority 2013, dated 2015).

What was measured:
[1] = target: T1, rat P2X7 (Rattus norvegicus (Rat), UniProt Q64663); assay: Ca2+ flux (FLIPR) in 1321N1 cells expressing recombinant rat P2X7 channel; format: cell-based; conditions: rat P2X7, 250 μM BzATP
Description: (§1) P2X7 Antagonism in Recombinant hP2X7 Cells: (a) Ca^2+ Flux (b) Radioligand Binding
(§2) (A) Ca^2+flux: 1321N1 cells expressing the recombinant human, rat or mouse P2X7 channel was cultured in HyQ DME/(HyClone/Dulbecco's Modified Eagle Medium) high glucose supplemented with 10% Fetal Bovine Serum (FBS) and appropriate selection marker. Cells were seeded at a density of 25000 cells/well (96-well clear bottom black walled plates) in 100 μl volume/well. On the day of the experiment, cell plates were washed with assay buffer, containing (in mM): 130 NaCl, 2 KCl, 1 CaCl2, 1 MgCl2, 10 HEPES, 5 glucose; pH 7.40 and 300 mOs. After the wash, cells were loaded with the Calcium-4 dye (Molecular Device) and incubated in the dark for 60 minutes. Test compounds were prepared at 250× the test concentration in neat DMSO. Intermediate 96-well compound plates were prepared by transferring 1.2 μL of the compound into 300 μL of assay buffer. A further 3× dilution occurred when transferring 50 μL/well of the compound plate to 100 μL/well in the cell plate. Cells were incubated with test compounds and dye for 30 minutes. […] The fluorescence change was measured 180 seconds after adding the agonist.

[2] = target: T2, human P2X7 (Homo sapiens (Human), UniProt Q99572); assay: Ca2+ flux (FLIPR) in 1321N1 cells expressing recombinant human P2X7 channel; format: cell-based; conditions: human P2X7, 250 μM BzATP
T2 sequence (Q99572 whole entry): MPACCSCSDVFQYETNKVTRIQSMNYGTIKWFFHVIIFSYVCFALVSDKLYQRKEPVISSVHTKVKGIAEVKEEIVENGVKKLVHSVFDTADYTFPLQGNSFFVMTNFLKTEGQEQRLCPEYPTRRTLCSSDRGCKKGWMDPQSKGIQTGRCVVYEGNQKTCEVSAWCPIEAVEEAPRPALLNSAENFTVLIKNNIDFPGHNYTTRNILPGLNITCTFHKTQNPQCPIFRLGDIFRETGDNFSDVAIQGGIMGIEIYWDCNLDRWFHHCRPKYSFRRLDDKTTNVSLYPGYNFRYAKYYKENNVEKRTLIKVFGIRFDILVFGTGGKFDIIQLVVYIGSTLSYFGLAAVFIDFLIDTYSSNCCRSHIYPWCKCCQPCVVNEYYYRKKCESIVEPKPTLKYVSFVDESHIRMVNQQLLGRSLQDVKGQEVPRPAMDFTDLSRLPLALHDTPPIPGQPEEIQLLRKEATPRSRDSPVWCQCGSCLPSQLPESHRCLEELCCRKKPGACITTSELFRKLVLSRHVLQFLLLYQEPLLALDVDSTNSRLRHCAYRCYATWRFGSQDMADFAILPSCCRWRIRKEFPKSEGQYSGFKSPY
Description: as §1, §2

[3] = target: T1, rat P2X7; assay: Radioligand binding, rat P2X7-1321N1 cell membranes, tritiated A-804598; conditions: rat P2X7-1321N1 membranes, tracer tritiated A-804598, 1 hour 4° C.
Description: as §1
(§3) (B) Radioligand binding: human or rat P2X7-1321N1 cells were collected and frozen @−80° C. On the day of the experiment, cell membrane preparations were made according to standard published methods. […] The compound can be prepared as described in the literature. […] The assay was terminated by filtration (GF/B filters pre-soaked with 0.3% PEI) and washed with washing buffer (Tris-HCl 50 mM). The IC50 generated in the binding assay was corrected for tracer concentration and affinity of the tracer to derive at the affinity (Ki) of the test compounds.

[4] = target: T2, human P2X7; assay: Radioligand binding, human P2X7-1321N1 cell membranes, tritiated A-804598; conditions: human P2X7-1321N1 membranes, tracer tritiated A-804598, 1 hour 4° C.
Description: as §1, §3

T1 sequence (Q64663 whole entry): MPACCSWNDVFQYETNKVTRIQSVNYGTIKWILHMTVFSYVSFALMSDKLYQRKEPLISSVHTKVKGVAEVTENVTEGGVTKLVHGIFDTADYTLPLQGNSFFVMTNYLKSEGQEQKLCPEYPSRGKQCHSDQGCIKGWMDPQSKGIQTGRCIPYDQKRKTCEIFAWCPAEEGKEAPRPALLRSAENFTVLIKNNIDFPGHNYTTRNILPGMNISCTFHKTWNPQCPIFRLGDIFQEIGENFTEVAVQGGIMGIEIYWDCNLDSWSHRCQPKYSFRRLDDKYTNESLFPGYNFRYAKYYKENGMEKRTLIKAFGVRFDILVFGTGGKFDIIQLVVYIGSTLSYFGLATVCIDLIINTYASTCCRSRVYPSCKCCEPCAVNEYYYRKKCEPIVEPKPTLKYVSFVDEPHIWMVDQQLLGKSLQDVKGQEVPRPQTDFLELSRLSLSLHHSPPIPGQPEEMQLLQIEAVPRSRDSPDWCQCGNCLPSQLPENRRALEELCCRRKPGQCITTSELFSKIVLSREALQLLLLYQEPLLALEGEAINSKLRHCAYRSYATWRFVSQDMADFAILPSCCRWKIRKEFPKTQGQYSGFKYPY

Compound	IC50 [1] [nM]	IC50 [2] [nM]	Ki [3] [nM]	Ki [4] [nM]
O=C(c1cccc(C(F)(F)F)c1Cl)N1[C@H]2CC[C@@H]1c1nnc(-c3ncccn3)n1C2 [Example 46, (6S,9R)-10-{[2-Chloro-3-(trifluoromethyl)phenyl]carbonyl}-3-pyrimidin-2-yl-6,7,8,9-tetrahydro-5H-6,9-epimino[1,2,4]triazolo[4,3-a]azepine]	253	15.2	6.3	15.8
O=C(c1cccc(C(F)(F)F)c1Cl)N1[C@H]2CC[C@@H]1c1nnc(-c3ccc(F)cn3)n1C2 [Example 45, (6S,9R)-10-{[2-Chloro-3-(trifluoromethyl)phenyl]carbonyl}-3-(5-fluoropyridin-2-yl)-6,7,8,9-tetrahydro-5H-6,9-epimino[1,2,4]triazolo[4,3-a]azepine]	–	13.1	–	12.6
O=C(c1cccc(C(F)(F)F)c1Cl)N1[C@H]2CC[C@@H]1c1nnc(-c3cccs3)n1C2 [Example 61, (6S,9R)-10-{[2-Chloro-3-(trifluoromethyl)phenyl]carbonyl}-3-thiophen-2-yl-6,7,8,9-tetrahydro-5H-6,9-epimino[1,2,4]triazolo[4,3-a]azepine]	10000	2.6	–	4
Cc1c(C(=O)N2[C@H]3CC[C@@H]2c2nnc(-c4cscn4)n2C3)cccc1C(F)(F)F [Example 53, (6S,9R)-10-{[2-Methyl-3-(trifluoromethyl)phenyl]carbonyl}-3-(1,3-thiazol-4-yl)-6,7,8,9-tetrahydro-5H-6,9-epimino[1,2,4]triazolo[4,3-a]azepine]	3860	3.1	7.9	12.6
O=C(c1cccc(C(F)(F)F)c1Cl)N1[C@H]2CC[C@@H]1c1nnc(-c3ccc(F)cc3)n1C2 [Example 40, (6S,9R)-10-{[2-Chloro-3-(trifluoromethyl)phenyl]carbonyl}-3-(4-fluorophenyl)-6,7,8,9-tetrahydro-5H-6,9-epimino[1,2,4]triazolo[4,3-a]azepine]	10000	12.6	35.5	21.9
O=C(c1ccc(F)c(Cl)c1Cl)N1[C@H]2CC[C@@H]1c1nnc(-c3cnccn3)n1C2 [Example 47, (6S,9R)-10-[(2,3-Dichloro-4-fluorophenyl)carbonyl]-3-pyrazin-2-yl-6,7,8,9-tetrahydro-5H-6,9-epimino[1,2,4]triazolo[4,3-a]azepine]	–	20.3	–	10
O=C(c1cccc(C(F)(F)F)c1Cl)N1[C@H]2CC[C@@H]1c1nnc(-c3ccc[nH]3)n1C2 [Example 62, (6S,9R)-10-{[2-Chloro-3-(trifluoromethyl)phenyl]carbonyl}-3-(1H-pyrrol-2-yl)-6,7,8,9-tetrahydro-5H-6,9-epimino[1,2,4]triazolo[4,3-a]azepine]	> 10000	19.6	–	6.3
O=C(c1ccc(F)c(C(F)(F)F)c1Cl)N1[C@H]2CC[C@@H]1c1nnc(-c3cscn3)n1C2 [Example 52, (6S,9R)-10-{[2-Chloro-4-fluoro-3-(trifluoromethyl)phenyl]carbonyl}-3-(1,3-thiazol-4-yl)-6,7,8,9-tetrahydro-5H-6,9-epimino[1,2,4]triazolo[4,3-a]azepine]	131	10.2	6.3	31.6
O=C(c1cccc(C(F)(F)F)c1Cl)N1[C@H]2CC[C@@H]1c1nnc(-c3ccccn3)n1C2 [Example 41, (6S,9R)-10-{[2-Chloro-3-(trifluoromethyl)phenyl]carbonyl}-3-pyridin-2-yl-6,7,8,9-tetrahydro-5H-6,9-epimino[1,2,4]triazolo[4,3-a]azepine]	1580	6.3	7.9	12.6
O=C(c1cccc(C(F)(F)F)c1Cl)N1[C@H]2CC[C@@H]1c1nnc(-c3ccsc3)n1C2 [Example 58, (6S,9R)-10-{[2-Chloro-3-(trifluoromethyl)phenyl]carbonyl}-3-thiophen-3-yl-6,7,8,9-tetrahydro-5H-6,9-epimino[1,2,4]triazolo[4,3-a]azepine]	713	1.7	–	10
O=C(c1cccc(C(F)(F)F)c1Cl)N1[C@H]2CC[C@@H]1c1nnc(-c3cccnc3)n1C2 [Example 48, (6S,9R)-10-{[2-Chloro-3-(trifluoromethyl)phenyl]carbonyl}-3-pyridin-3-yl-6,7,8,9-tetrahydro-5H-6,9-epimino[1,2,4]triazolo[4,3-a]azepine]	–	13.2	–	39.8
O=C(c1cccc(C(F)(F)F)c1Cl)N1[C@H]2CC[C@@H]1c1nnc(-c3cscn3)n1C2 [Example 49, (6S,9R)-10-{[2-Chloro-3-(trifluoromethyl)phenyl]carbonyl}-3-(1,3-thiazol-4-yl)-6,7,8,9-tetrahydro-5H-6,9-epimino[1,2,4]triazolo[4,3-a]azepine]	13.5	5	4	20
O=C(c1ccc(Cl)c(F)c1Cl)N1[C@H]2CC[C@@H]1c1nnc(-c3cscn3)n1C2 [Example 54, (6S,9R)-10-[(2,4-Dichloro-3-fluorophenyl)carbonyl]-3-(1,3-thiazol-4-yl)-6,7,8,9-tetrahydro-5H-6,9-epimino[1,2,4]triazolo[4,3-a]azepine]	8910	6.1	7.9	25.1
O=C(c1cccc(C(F)(F)F)c1Cl)N1[C@H]2CC[C@@H]1c1nnc(-c3cncs3)n1C2 [Example 57, (6S,9R)-10-{[2-Chloro-3-(trifluoromethyl)phenyl]carbonyl}-3-(1,3-thiazol-5-yl)-6,7,8,9-tetrahydro-5H-6,9-epimino[1,2,4]triazolo[4,3-a]azepine]	> 10000	97.7	–	35.5
Cc1cc(-c2nnc3n2C[C@@H]2CC[C@H]3N2C(=O)c2cccc(C(F)(F)F)c2Cl)[nH]n1 [Example 51, (6S,9R)-10-{[2-Chloro-3-(trifluoromethyl)phenyl]carbonyl}-3-(3-methyl-1H-pyrazol-5-yl)-6,7,8,9-tetrahydro-5H-6,9-epimino[1,2,4]triazolo[4,3-a]azepine]	4100	14.4	7.9	39.8
Cc1ncsc1-c1nnc2n1C[C@@H]1CC[C@H]2N1C(=O)c1cccc(C(F)(F)F)c1Cl [Example 59, (6S,9R)-10-{[2-Chloro-3-(trifluoromethyl)phenyl]carbonyl}-3-(4-methyl-1,3-thiazol-5-yl)-6,7,8,9-tetrahydro-5H-6,9-epimino[1,2,4]triazolo[4,3-a]azepine]	> 10000	100	–	126
Cc1nc(-c2nnc3n2C[C@@H]2CC[C@H]3N2C(=O)c2cccc(C(F)(F)F)c2Cl)cs1 [Example 56, (6S,9R)-10-{[2-Chloro-3-(trifluoromethyl)phenyl]carbonyl}-3-(2-methyl-1,3-thiazol-4-yl)-6,7,8,9-tetrahydro-5H-6,9-epimino[1,2,4]triazolo[4,3-a]azepine]	–	30.8	–	–
O=C(c1cccc(C(F)(F)F)c1Cl)N1[C@H]2CC[C@@H]1c1nnc(-c3ccc(Cl)s3)n1C2 [Example 55, (6S,9R)-3-(5-Chlorothiophen-2-yl)-10-{[2-chloro-3-(trifluoromethyl)phenyl]carbonyl}-6,7,8,9-tetrahydro-5H-6,9-epimino[1,2,4]triazolo[4,3-a]azepine]	–	17.1	–	25.1
O=C(c1ccnc(C(F)(F)F)c1Cl)N1[C@H]2CC[C@@H]1c1nnc(-c3ccc(Cl)s3)n1C2 [Example 60, (6S,9R)-3-(5-Chlorothiophen-2-yl)-10-{[3-chloro-2-(trifluoromethyl)pyridin-4-yl]carbonyl}-6,7,8,9-tetrahydro-5H-6,9-epimino[1,2,4]triazolo[4,3-a]azepine]	2340	14.9	–	21.9
O=C(c1cccc(C(F)(F)F)c1Cl)N1[C@H]2CC[C@@H]1c1nnc(-c3cnccn3)n1C2 [Example 42, (6S,9R)-10-{[2-Chloro-3-(trifluoromethyl)phenyl]carbonyl}-3-pyrazin-2-yl-6,7,8,9-tetrahydro-5H-6,9-epimino[1,2,4]triazolo[4,3-a]azepine]	251	20	7.9	12.6
